Results taken from ChEMBL document CHEMBL5550186, “Exploring the Potential of Cyclic Peptidyl Antitumor Agents Derived from Natural Macrocyclic Peptide Phakellistatin 13” (J Med Chem, 2024).
pIC50: −log10 of the molar value. The source made the active and inactive calls. No cut-off for these calls is given here.

Legend:
[1] = Toxicity in Balb/c mouse assessed as effect on spleen at 6 mg/kg, iv measured after 14 days by H and E staining based analysis; format: organism-based; conditions: in vivo, 336 h, time 14 day
[2] = Mutagenicity in Salmonella typhimurium by Ames test; format: toxicity; conditions: salmonella enterica subsp. enterica serovar typhimurium
[3] = biological target: Voltage-gated inwardly rectifying potassium channel KCNH2 (Homo sapiens, UniProt Q12809); experiment: Inhibition of human ERG; format: toxicity
Chain of Voltage-gated inwardly rectifying potassium channel KCNH2 (Q12809 whole entry): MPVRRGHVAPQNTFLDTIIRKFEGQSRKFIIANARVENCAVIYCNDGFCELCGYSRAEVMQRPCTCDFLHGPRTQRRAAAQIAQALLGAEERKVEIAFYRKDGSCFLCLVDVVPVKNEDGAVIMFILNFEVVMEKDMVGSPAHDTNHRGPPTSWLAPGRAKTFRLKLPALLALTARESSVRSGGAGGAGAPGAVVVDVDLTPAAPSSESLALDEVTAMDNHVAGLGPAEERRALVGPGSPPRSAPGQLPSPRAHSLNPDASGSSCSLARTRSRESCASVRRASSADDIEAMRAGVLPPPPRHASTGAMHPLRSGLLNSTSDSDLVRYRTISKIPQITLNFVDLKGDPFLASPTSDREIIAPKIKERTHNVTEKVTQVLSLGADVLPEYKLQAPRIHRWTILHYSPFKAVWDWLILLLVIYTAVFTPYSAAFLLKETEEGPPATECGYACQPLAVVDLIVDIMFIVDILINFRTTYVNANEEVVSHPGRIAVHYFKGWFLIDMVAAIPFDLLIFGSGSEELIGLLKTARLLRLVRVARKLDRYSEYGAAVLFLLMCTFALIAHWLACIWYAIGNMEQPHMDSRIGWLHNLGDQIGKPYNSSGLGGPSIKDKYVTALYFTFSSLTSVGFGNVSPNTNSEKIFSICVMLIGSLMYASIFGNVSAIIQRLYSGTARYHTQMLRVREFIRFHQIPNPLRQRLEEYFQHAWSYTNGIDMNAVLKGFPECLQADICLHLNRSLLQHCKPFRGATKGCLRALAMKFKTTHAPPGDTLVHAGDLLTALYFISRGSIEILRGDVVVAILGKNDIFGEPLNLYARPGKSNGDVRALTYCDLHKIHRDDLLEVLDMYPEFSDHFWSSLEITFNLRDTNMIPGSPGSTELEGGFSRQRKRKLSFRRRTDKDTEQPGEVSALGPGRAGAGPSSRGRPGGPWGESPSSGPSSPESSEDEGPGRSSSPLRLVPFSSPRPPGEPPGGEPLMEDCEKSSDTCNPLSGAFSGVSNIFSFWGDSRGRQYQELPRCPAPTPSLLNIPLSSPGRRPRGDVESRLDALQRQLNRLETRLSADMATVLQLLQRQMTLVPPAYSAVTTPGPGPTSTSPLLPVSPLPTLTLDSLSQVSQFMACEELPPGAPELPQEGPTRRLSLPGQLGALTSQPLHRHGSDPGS

Cell membrane [4] = experiment: Induction of mitochondrial membrane potential loss in human HepG2 cells assessed as decrease in fluorescence at 10 uM by Rhodamine 123 staining based flow cytometry; format: cell membranes; conditions: time 12-48 hrs, TDE = time-dependent effect
HepG2 [5] = experiment: Induction of cell cycle arrest in human HepG2 cells assessed as accumulation of cells at <2N phase at 10 uM incubated for 24 hrs by PI staining based flow cytometry analysis (reference value: 0.027%); format: functional
HepG2 [6] = experiment: Induction of cell cycle arrest in human HepG2 cells incubated for 48 hrs by PI staining based flow cytometry analysis; format: functional; conditions: dose 5-20 µM
HepG2 [7] = experiment: Induction of apoptosis in human HepG2 cells assessed as early apoptotic cells at 20 uM incubated for 48 hrs by annexin V-FITC/PI staining based flow cytometry analysis (reference value: 0.50%); format: functional
HepG2 [8] = experiment: Induction of apoptosis in human HepG2 cells assessed as necrotic cells at 20 uM incubated for 48 hrs by annexin V-FITC/PI staining based flow cytometry analysis (reference value: 0%); format: functional
[9] = Apparent permeability of compound; format: ADME; conditions: not told
[10] = Upregulation of DET1 expression level in human HepG2 cells assessed as fold change by KEGG enrichment analysis; format: functional
HepG2 [11] = experiment: Induction of cell cycle arrest in human HepG2 cells assessed as accumulation of cells at G2/M phase at 5 uM incubated for 48 hrs by PI staining based flow cytometry analysis (reference value: 6.38%); format: functional
4T1 = experiment: Antitumor activity in mouse 4T1 cells xenografted in Balb/c mouse assessed as inhibition of tumor growth at 6 mg/kg, iv measured every two days for 14 days; format: functional, organism-based; conditions: time 14.0 day
[12] = Upregulation of TRAF1 expression level in human HepG2 cells assessed as fold change by KEGG enrichment analysis; format: functional
[13] = Upregulation of SOCS1 expression level in human HepG2 cells assessed as fold change by KEGG enrichment analysis; format: functional
Cell membrane [14] = experiment: Induction of mitochondrial membrane potential loss in human HepG2 cells assessed as decrease in fluorescence measured after 48 hrs by Rhodamine 123 staining based flow cytometry; format: cell membranes; conditions: dose 5-20 µM
[15] = Upregulation of CDKN1A expression level in human HepG2 cells assessed as fold change by KEGG enrichment analysis; format: functional
HepG2 [16] = experiment: Induction of cell cycle arrest in human HepG2 cells assessed as accumulation of cells at S phase at 5 uM incubated for 48 hrs by PI staining based flow cytometry analysis (reference value: 39.6%); format: functional
HepG2 [17] = experiment: Induction of cell cycle arrest in human HepG2 cells assessed as accumulation of cells at G2/M phase at 10 uM incubated for 48 hrs by PI staining based flow cytometry analysis (reference value: 6.38%); format: functional
HepG2 [18] = experiment: Induction of cell cycle arrest in human HepG2 cells assessed as accumulation of cells at S phase at 20 uM incubated for 48 hrs by PI staining based flow cytometry analysis (reference value: 39.6%); format: functional
BEL-7404 tumor cell line = experiment: Antiproliferative activity against human BEL-7404 tumor cell line incubated for 48 hrs by MTT assay; format: functional, cell-based; conditions: BEL-7404, 48 h
HepG2 [19] = experiment: Induction of apoptosis in human HepG2 cells assessed as increase in intracellular calcium level at 10 uM measured after 24 hrs by fluo-3AM dye based flow cytometry analysis; format: functional, cell-based
HepG2 [20] = experiment: Induction of morphological changes in human HepG2 cells assessed as increase in cell death at 40 uM measured after 48 hrs by fluorescence inverted microscopic analysis; format: functional, cell-based
HepG2 [21] = experiment: Induction of cell cycle arrest in human HepG2 cells assessed as accumulation of cells at >G2/M phase at 10 uM incubated for 24 hrs by PI staining based flow cytometry analysis (reference value: 28.0%); format: functional
HepG2 [22] = experiment: Induction of morphological changes in human HepG2 cells assessed as appearance of luminous morphology at 40 uM measured after 12 to 24 hrs by fluorescence inverted microscopic analysis; format: functional, cell-based; conditions: time 12-24 hrs
Cell membrane [23] = experiment: Induction of mitochondrial membrane potential loss in human HepG2 cells assessed as decrease in fluorescence at 10 uM measured after 12 hrs by Rhodamine 123 staining based flow cytometry (reference value: 66.8%); format: cell membranes; design: scale not given: the % may be the effect or the level left
HepG2 [24] = experiment: Induction of apoptosis in human HepG2 cells assessed as late apoptotic cells at 10 uM incubated for 48 hrs by annexin V-FITC/PI staining based flow cytometry analysis (reference value: 0.16%); format: functional
HepG2 [25] = experiment: Induction of cell cycle arrest in human HepG2 cells assessed as accumulation of cells at <2N phase at 10 uM incubated for 48 hrs by PI staining based flow cytometry analysis (reference value: 0.027%); format: functional
HepG2 [26] = experiment: Induction of cell cycle arrest in human HepG2 cells assessed as accumulation of cells at G2/M phase at 20 uM incubated for 48 hrs by PI staining based flow cytometry analysis (reference value: 6.38%); format: functional
HepG2 [27] = experiment: Induction of apoptosis in human HepG2 cells assessed as necrotic cells at 10 uM incubated for 48 hrs by annexin V-FITC/PI staining based flow cytometry analysis (reference value: 0%); format: functional
[28] = Upregulation of DUSP6 expression level in human HepG2 cells assessed as fold change by KEGG enrichment analysis; format: functional
Cell membrane [29] = experiment: Induction of mitochondrial membrane potential loss in human HepG2 cells assessed as decrease in fluorescence at 10 uM measured after 48 hrs by Rhodamine 123 staining based flow cytometry (reference value: 66.8%); format: cell membranes; design: scale not given: the % may be the effect or the level left
[30] = Upregulation of SESN3 expression level in human HepG2 cells assessed as fold change by KEGG enrichment analysis; format: functional
Cell membrane [31] = experiment: Induction of mitochondrial membrane potential loss in human HepG2 cells assessed as decrease in fluorescence at 5 uM measured after 48 hrs by Rhodamine 123 staining based flow cytometry (reference value: 66.8%); format: cell membranes; design: scale not given: the % may be the effect or the level left
[32] = Upregulation of PGF expression level in human HepG2 cells assessed as fold change by KEGG enrichment analysis; format: functional
[33] = Upregulation of GADD45B expression level in human HepG2 cells assessed as fold change by KEGG enrichment analysis; format: functional
HepG2 [34] = experiment: Induction of cell cycle arrest in human HepG2 cells assessed as assessed as accumulation of cells at 2N phase at 10 uM incubated for 12 hrs by PI staining based flow cytometry analysis (reference value: 26.0%); format: functional
HepG2 [35] = experiment: Induction of cell cycle arrest in human HepG2 cells assessed as accumulation of cells at <2N phase at 5 uM incubated for 48 hrs by PI staining based flow cytometry analysis (reference value: 0.027%); format: functional
[36] = Upregulation of IL1A expression level in human HepG2 cells assessed as fold change by KEGG enrichment analysis; format: functional

Activity (Cell membrane [4]): Tde
Papp [9]: 0.416 ×10⁻⁶ cm/s
Activity (Cell membrane [14]): Dose-Dependent Effect
pIC50 (BEL-7404 tumor cell line): 4.77
Activity (Cell membrane [23]): 55.6%
Activity (Cell membrane [29]): 28.8%
Activity (Cell membrane [31]): 41.6%
Structure (SMILES): CC(C)C[C@H]1NC(=O)[C@H]([C@@H](C)OCc2ccccc2)NC(=O)[C@H]2CCCN2C(=O)CN2C(=O)c3ccccc3[C@@]2(O)CN(Cc2ccccc2)C(=O)[C@H](Cc2ccccc2)NC(=O)[C@H]2CCCN2C(=O)[C@H](Cc2c[nH]c3ccccc23)NC1=O
Activity [1]: Non-Toxic
Activity [2]: Non-Toxic
inhibition (INH) [3]: Active
Activity (HepG2 [5]): 35.9%
Activity (HepG2 [6]): Dose-Dependent Effect
Activity (HepG2 [7]): 41.1%
Activity (HepG2 [8]): 0.02%
fold change (FC) [10]: 1.448
Activity (HepG2 [11]): 18.9%
Activity (4T1): Active
fold change (FC) [12]: 1.094
fold change (FC) [13]: 1.707
fold change (FC) [15]: 1.175
Activity (HepG2 [16]): 12.3%
Activity (HepG2 [17]): 23%
Activity (HepG2 [18]): 11.7%
Activity (HepG2 [19]): Active
Activity (HepG2 [20]): Active
Activity (HepG2 [21]): 13.5%
Activity (HepG2 [22]): Active
Activity (HepG2 [24]): 4.57%
Activity (HepG2 [25]): 20.2%
Activity (HepG2 [26]): 37.1%
Activity (HepG2 [27]): 0%
fold change (FC) [28]: 1.112
fold change (FC) [30]: 1.529
fold change (FC) [32]: 2.135
fold change (FC) [33]: 1.146
Activity (HepG2 [34]): 27.8%
Activity (HepG2 [35]): 37.3%
fold change (FC) [36]: 2.186
